Measurements taken from patent US5840936A, “Aminosterol compounds useful as inhibitors of the sodium/proton exchanger (NHE)” (priority 1995, dated 1998).
Entries after “also recorded” stand apart in the source; their conditions may differ.

Tests used:
[1] = tested on: Human colon carcinoma HT29; assay: Growth inhibition in vitro, HT29; assay type: cell-based; conditions: 10 μg/ml
Description: (§1) As set forth in Table 7 below, all malignant tumors evaluated in tissue culture, endothelial cells and vascular smooth muscle cells were sensitive to inhibition. Thus, compound 1436 has application in the control of growth factor dependent proliferation of many types of tissue.

B16 melanoma = assay: Suppression of B16 melanoma growth in C57B mice; assay type: in vivo, mouse
Protocol: The growth of B16 melanoma in C57B mice is dependent upon neovascularization.
Using the growth of B16 melanoma cells in C57B mice, a recognized model for the evaluation of inhibitors of angiogenesis on the growth of cancers, the effects of subcutaneous, intraperitoneal and oral administration of squalamine were evaluated.
Animals were implanted with B16 melanoma followed by treatment with compound 1436 or 1256 administered in a combined schedule or separately. […] Thus, a combination of these two compounds achieves a theraputic benefit in tumors dependent on neovascularization that may prevent metastatic spread.

[2] = tested on: Human ovarian carcinoma SKOV3; assay: Growth inhibition in vitro, SKOV3; assay type: cell-based; conditions: 10 μg/ml
Description: as §1

ELC = ELC MTT; assay type: cell-based; conditions: Table II; read-out: ELC MTT, Minimum Effective Concentration
[3] = tested on: Human colon carcinoma SW948; assay: Growth inhibition in vitro, SW948; assay type: cell-based; conditions: 10 μg/ml
Description: as §1

rabbit NHE3 = rabbit NHE3 (Oryctolagus cuniculus, UniProt P26432); assay: NHE3 inhibition, internal pH (BCECF-AM) in transfected PS120 fibroblasts; conditions: 10 μg/ml, acid preloaded
Chain of rabbit NHE3 (P26432 30-832): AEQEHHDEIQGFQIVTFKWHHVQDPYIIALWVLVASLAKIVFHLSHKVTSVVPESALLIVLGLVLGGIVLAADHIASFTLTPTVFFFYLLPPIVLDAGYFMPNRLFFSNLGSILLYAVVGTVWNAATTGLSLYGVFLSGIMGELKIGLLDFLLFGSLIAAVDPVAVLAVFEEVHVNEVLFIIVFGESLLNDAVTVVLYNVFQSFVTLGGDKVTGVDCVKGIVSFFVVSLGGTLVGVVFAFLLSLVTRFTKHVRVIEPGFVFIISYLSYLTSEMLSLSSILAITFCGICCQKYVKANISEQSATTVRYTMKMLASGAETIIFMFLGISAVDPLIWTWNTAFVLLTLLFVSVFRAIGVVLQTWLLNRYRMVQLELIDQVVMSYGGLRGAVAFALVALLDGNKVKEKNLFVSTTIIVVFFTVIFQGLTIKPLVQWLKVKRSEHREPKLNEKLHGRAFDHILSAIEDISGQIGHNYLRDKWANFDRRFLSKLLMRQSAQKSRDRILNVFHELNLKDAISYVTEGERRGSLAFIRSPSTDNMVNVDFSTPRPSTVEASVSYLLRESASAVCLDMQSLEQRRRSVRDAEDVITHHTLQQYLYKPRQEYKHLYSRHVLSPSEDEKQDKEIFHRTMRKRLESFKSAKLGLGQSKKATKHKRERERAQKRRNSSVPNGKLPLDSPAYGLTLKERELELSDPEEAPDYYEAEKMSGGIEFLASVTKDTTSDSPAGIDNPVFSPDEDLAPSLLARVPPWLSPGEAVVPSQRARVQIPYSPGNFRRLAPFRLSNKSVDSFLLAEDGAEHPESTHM
Protocol: Internal pH was measured either following acid loading or in the absence of an acid-loading challenge, with the results shown in FIGS. 1A and 1B.
Specifically, PS120 fibroblasts transfected with rabbit NHE3 were grown in supplemented Dulbecco's-modified Eagle's medium as described by Levine et al., J. Biol. Chem. 268, 1993, 25527-25535. […] For cells not acid-preloaded, the actual internal pH value was monitored as a function of time following addition of squalamine, with the results depicted in FIG. 1B.
PS120 fibroblasts transfected with rabbit NHE3 were grown and acid preloaded by exposure to 40 mM NH4 Cl as described above in conjunction with FIGS. 1A and 1B. Internal cellular pH changes expressed as the rate of pH recovery as a function of restored extracellular sodium ion concentration following exposure to 10 μg/ml of the compound were assayed with the fluorescent dye BCECF-AM as described above.

[4] = Effect on arterial resistance and blood pressure; assay type: in vivo, rat
Protocol: A 200-g rat was catheterized in the right carotid artery, and the compound was introduced over a ten-second period to a total dosage of 5 mg/kg. Within 30 seconds, the mean arterial pressure had fallen from about 100 mm Hg to about 70 mm Hg, with a marked reduction in pulse pressure from about 40 mm to about 10 mm. […] If cardiac output was basically unaffected, reduction in blood pressure would have resulted principally from a reduction in system resistance.
At that time, 40 μg of noradrenaline was introduced.

[5] = tested on: human coronary artery smooth muscle; assay: Growth of human coronary artery smooth muscle in vitro; assay type: cell-based
Description: Aminosterols of the invention may also have utility in inhibiting the growth factor mediated proliferation of smooth muscle within the artery. Following coronary angioplasty, reocclusion commonly occurs, secondary to reparative proliferation of the vascular smooth muscle within the wall of the surgically manipulated blood vessel. This process generally takes place over the course of 7-10 days. To evaluate whether an agent could prevent the growth factor mediated proliferation of smooth muscle within the artery, compound 1436 was evaluated in vitro for its effect on the proliferation of human coronary artery smooth muscle. Results for compound 1436 are shown in FIG. 13, and those for squalamine are shown in FIG. 14, with FIG. 15 being a composite logarithmic plot.

[6] = tested on: human umbilical venous endothelial cells; assay: Growth inhibition in vitro, human umbilical venous endothelial cells; assay type: cell-based; conditions: 10 μg/ml
Description: as §1

[7] = Effect on growth and weight gain in mice; assay type: in vivo, C57B mice; conditions: 10 mg/kg QTD i.p., after 6 doses, about 1 month
Protocol: Animals were dosed QTD (i.p.) starting on Day 1. […] Animals receiving 5 mg/kg QTD experienced about a 50% reduction in growth, compared to untreated controls, while animals receiving 1 mg/kg QTD were affected by about 10%. […] They appeared very much like hypophysectamized animals might appear.

Murine B16 melanoma = assay: Growth inhibition in vitro, B16; assay type: cell-based; conditions: 10 μg/ml
Description: as §1

[8] = tested on: Human coronary artery smooth muscle cells; assay: Growth inhibition in vitro, human coronary artery smooth muscle cells; assay type: cell-based; conditions: 10 μg/ml
Description: as §1

[9] = tested on: Human microvascular endothelial cells; assay: Growth inhibition in vitro, human microvascular endothelial cells; assay type: cell-based; conditions: 10 μg/ml
Description: as §1

[10] = tested on: Xenopus tadpoles, stage 59-60; assay: Xenopus tadpole assay; conditions: 10 μg/ml
[11] = tested on: chick embryo vitelline capillaries; assay: Chick embryo vitelline capillary regression assay; assay type: in vivo; design: key to Vitelline capillary regression: +: Vascular reactivity; 0: No vascular reactivity; +/-: Equivocal reactivity
Protocol: Using the chick embryo vitelline capillaries assay, compounds were tested for their ability to induce capillary regression. Each compound was applied in 0.1 ml of 15% Ficol 400 and PBS onto the embryo, and vascular regression was assessed after 60 minutes.
The 3-day chick embryo consists of an embryonic disc from which numerous vessels emerge and return, forming a "FIG. 8"-shaped structure--the embryo in the center with vascular loops extending outward over both poles. […] Following a lag period of around 15 minutes, the constriction of continuity between capillary and secondary vessels, generally on the "venous" side, was observed. Continued pulsatile blood flow progressed, resulting in a "swelling" of the blind tube, followed by a pinching off of the remaining connection and formation of an enclosed vascular sac resembling a "blood island." This process progressed until only the largest vessels remained intact.

[12] = tested on: bovine pulmonary endothelial cells; assay: Growth inhibition in vitro, bovine pulmonary endothelial cells; assay type: cell-based; conditions: 10 μg/ml
Description: as §1

[13] = tested on: PHA-stimulated lymphocytes; assay: Lymphocyte viability in HIV assay; assay type: cell-based; conditions: 10080 min
Description: Results are tabulated below.

Xenopus laevis heart = assay: Isolated frog heart, persistence of beating ex vivo; conditions: 10 μg/ml, room temperature, adrenaline 50 μg/ml; control about one hour
Protocol: To determine if compound 1436 has such utility, the following experiment was performed. The heart of a juvenile Xenopus laevis frog was dissected from the living animal. The heart was placed into a Petri dish containing Krebs-Ringer buffer with adrenaline 50 μg/ml, and examined with the naked eye. At room temperature, the heart continued beating in a coordinated fashion (atrial beat followed by ventricular beat) for about one hour. In the presence of 10 μg/ml of compound 1436, spontaneous beating persisted up to 24 hours.

[14] = tested on: L1210 lymphoblastic leukemia; assay: Mouse model of L1210 leukemia; conditions: highest dose (10 mg/kg every 3 days i.p.)
Description: C57B mice were inoculated with L1210 lymphoblastic leukemia cells at an inoculum that causes leukemia in 100% of animals.

[15] = Fasting blood glucose in mice; assay type: in vivo, male CD-1 mice
Protocol: To study the effect of steroid administrator or the NHE responsible for secretion of insulin, several of the aminosterols from shark liver were administered to fasting mice. Male CD-1 mice were assigned to one of four treatment groups. Whole blood glucose was tested using glucometer (Lifescan Glucometer II and One Touch test strips). Statistical analysis was via one-way analysis of variance (ANOVA) followed by subsequent Bonferonni's t-test.

Lewis lung carcinoma = assay: Growth inhibition in vitro, Lewis lung carcinoma; assay type: cell-based; conditions: 10 μg/ml
Description: as §1

[16] = tested on: Xenopus tadpoles, stage 59-60; conditions: 10 μg/mL
Murine L1210 leukemia = assay: Growth inhibition in vitro, L1210; assay type: cell-based; conditions: 10 μg/ml
Description: as §1

Human melanoma WM 1617 = assay: Growth inhibition in vitro, WM 1617; assay type: cell-based; conditions: 10 μg/ml
Description: as §1

CC(C)[C@@H](CC[C@@H](C)[C@H]1CC[C@H]2[C@@H]3[C@H](O)C[C@H]4C[C@@H](NCCCNCCCCNCCCN)CC[C@]4(C)[C@H]3CC[C@]12C)OS(=O)(=O)O [Compound 1436]
Inhibited in vitro: Human colon carcinoma HT29 [1]: INHIBITED | Impact on tumor volume (B16 melanoma; compound 1436 10 mg/kg/every 3 days): no significant impact on tumor volume | Tumor growth effect of single agent compared with combination (B16 melanoma; squalamine 15 mg/kg/day, compound 1436 alone in a tolerable schedule): Neither administration of squalamine at 15 mg/kg/day nor compound 1436 alone in a tolerable schedule could achieve this effect | Inhibited in vitro: Human ovarian carcinoma SKOV3 [2]: INHIBITED | minimal effective concentration (ELC): 16.7 µg/mL | Inhibited in vitro: Human colon carcinoma SW948 [3]: INHIBITED | Inhibition of rabbit NHE3 (rabbit NHE3): found to inhibit rabbit NHE3; also recorded: inhibitor of NHE3 | Reversibility of blood pressure effect ([4]; 40 μg of noradrenaline at 30 minutes): readily reversible by standard pharmacological practice | Change of effect over 30 minutes ([4]; 5 mg/kg i.v., followed for 30 minutes): without significant change | Pulse pressure after dosing ([4]; 5 mg/kg i.v., within 30 seconds, from about 40 mm): about 10 mm | Mean arterial pressure after dosing ([4]; 5 mg/kg i.v., within 30 seconds, from about 100 mm Hg): about 70 mm Hg | Concentration maintaining quiescent state without loss of viability [5]: about 11 μg/ml | Suppression of growth of human coronary artery smooth muscle ([5]; in vitro): suppress in vitro the growth of human coronary artery smooth muscle | Inhibited in vitro: Human umbilical venous endothelial cells [6]: INHIBITED | Growth suppression [7]: growth was almost completely inhibited | Inhibited in vitro: Murine B16 melanoma (Murine B16 melanoma): INHIBITED | Inhibited in vitro: Human coronary artery smooth muscle cells [8]: INHIBITED | Inhibited in vitro: Human microvascular endothelial cells [9]: INHIBITED | Tadpole assay, observed effects [10]: common vascular occlusive effect; also recorded: Gradual reduction in overall activity; also recorded: Melanocytes over head and tail began to swell, first exhibiting visibly distinct nuclei, followed by rupture into fragments; also recorded: dramatic disruption of melanocytes over its head, trunk, and tail, along with depression of its nervous system; also recorded: No effects are observed on epithelial cell integrity, vascular flow, erythrocyte volume, tissue integrity, muscle fiber striation, or GI tract activity | Tadpole time to death [10]: about 2 hours | Vitelline capillary regression ([11]; 0.001 μg applied): +/- | Vitelline capillary regression ([11]; 0.01 μg applied): + | Vitelline capillary regression ([11]; 0.1 μg applied): + | Vitelline capillary regression ([11]; 1 μg applied): + | Vitelline capillary regression ([11]; 10 μg applied): + | Effect on chick embryo vessels ([11]; 3- to 5-day chick embryo): vitelline capillary regression with about the same potency as squalamine | Inhibited in vitro: Bovine pulmonary endothelial cells [12]: INHIBITED | % Viability ([13]; 0.5 μM): 91% | % Viability ([13]; 10 μM): 95% | Lymphocyte viability ([13]; 10 μg/ml): 95% | % Viability ([13]; 20 μM): 90.1% | Persistence of spontaneous beating (Xenopus laevis heart): up to 24 hours | Survival in mice bearing L1210 leukemia [14]: significant prolongation of life | Hyperglycemia ([15]; i.v., 1436 in D5W, 1437 in water): caused hyperglycemia in mice | Fasting Blood Glucose Mean ± SEM ([15]; total dose 20 mg/kg i.v. (2 × 10 mg/kg), 30 min. after 2d dose): 105 ± 8.0 mg/dL | Inhibited in vitro: Lewis lung carcinoma (Lewis lung carcinoma): INHIBITED | Tadpole E (epithelial) [16]: ± | Tadpole GI (gastrointestinal) [16]: - | Tadpole M (melanocytes) [16]: + | Tadpole Mus (muscle) [16]: - | Tadpole V (vascular) [16]: + | Inhibited in vitro: Murine L1210 leukemia (Murine L1210 leukemia): INHIBITED | Inhibited in vitro: Human melanoma WM 1617 (Human melanoma WM 1617): INHIBITED
